Test results reported in US20220031652A1, “USE OF AN ORGANOMETALLIC COMPOUND AS A DNA-DEMETHYLATING AGENT” (UNIVERSITE DE LORRAINE, priority 2018, published 2022).

Tested on: MDA-MB231, T47D, T47D R+ doxo, U251 and U87 cells
Experiment: Crystal violet proliferation test at 2 μM, 48 h or 72 h
Format: cell-based
Description: Each cell line is seeded in 96-well plates (100 μL medium/well) according to the following conditions:
After 48 h or 72 h of treatment, the medium of each well is removed then a washing is carried out with 100 μL of PBS.
The cells are then fixed with 100 μL of paraformaldehyde 4% for 20 minutes, followed by two washings with 500 μL of PBS.
The percentage of cells adhered is highlighted by a crystal violet coloration.
100 μL of crystal violet at 0.1% (1/5 dilution in H2O of the stock solution: 0.5% crystal violet 2% filtered ethanol 0.22 μM) is added in each well.
After 30 minutes of incubation at ambient temperature, the wells are rinsed 3 times with distilled water, then correctly dried by patting on a sheet of absorbent paper.
100 μL of 10% acetic acid is then added to each well.
The plate is stirred until total solubilisation of the crystal violet crystals (around 10 minutes).

[Ru+2].c1ccc(-c2cc(-c3ccccn3)nc(-c3ccccn3)c2)cc1.c1ccc(-c2cc(-c3ccccn3)nc(-c3ccccn3)c2)cc1 [Ru]
inhibition of the proliferation (crystal violet): does not lead to any inhibition of the proliferation
